For assay [1], the target named is T1, OX2 (Homo sapiens, UniProt O43614).
T1 sequence (O43614 1-444): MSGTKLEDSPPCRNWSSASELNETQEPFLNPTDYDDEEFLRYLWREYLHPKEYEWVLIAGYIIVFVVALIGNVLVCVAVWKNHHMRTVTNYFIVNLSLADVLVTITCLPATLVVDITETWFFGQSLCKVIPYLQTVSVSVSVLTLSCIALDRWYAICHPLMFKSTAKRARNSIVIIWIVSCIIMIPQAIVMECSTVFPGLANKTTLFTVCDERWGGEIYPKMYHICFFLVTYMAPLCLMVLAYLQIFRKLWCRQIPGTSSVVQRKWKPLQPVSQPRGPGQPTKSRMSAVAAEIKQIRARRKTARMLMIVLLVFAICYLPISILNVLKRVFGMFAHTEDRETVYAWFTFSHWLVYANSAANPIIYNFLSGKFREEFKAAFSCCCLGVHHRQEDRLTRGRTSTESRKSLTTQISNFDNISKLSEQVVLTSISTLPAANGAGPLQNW
The experiment in a line: Measurement of antagonism (PLAP assay), OX2. Also on record: expressed in transfected cells; host or cells: HEK-293 cells, expression vector pBabeCLIH. Type of assay: cell-based. How it is done: (§1) 2. Measurement of Antagonism (PLAP Assay)
(§2) The antagonistic function of the compound of the present invention to prevent the activation of OX2 and OX1 by orexin-A (OX-A), which is a natural peptide agonist, was measured using a cell-based reporter assay. […] The cells were plated at a density of 10,000 cells/well onto a non-coated 96-well plate in Dulbecco's modified Eagle medium (Sigma Cat No. D6046:10% v/v heat-inactivated fetal bovine serum was contained). The cells were cultured at 37° C. overnight, so that they could adhere to the plate. On the following day, cells were incubated with a compound of the present invention dissolved in Dulbecco's modified Eagle medium (Sigma Cat No. A8806:0.1% w/v bovine serum albumin was contained), and added to the cell plate to reach a final concentration of 0.1% dimethyl sulfoxide.
(§3) The thus obtained mixture was incubated at room temperature for 1 hour. Thereafter, human OX-A and forskolin were dissolved in the same medium as described above, which contained fetal bovine serum albumin, and the medium was then added to the cells, resulting in a final concentration of 300 nM forskolin. Subsequently, the cells were cultured at 37° C. for approximately 18 to 24 hours.

The target in assay [2] is T2, OX1 (Homo sapiens, UniProt O43613).
T2 sequence (O43613 1-425): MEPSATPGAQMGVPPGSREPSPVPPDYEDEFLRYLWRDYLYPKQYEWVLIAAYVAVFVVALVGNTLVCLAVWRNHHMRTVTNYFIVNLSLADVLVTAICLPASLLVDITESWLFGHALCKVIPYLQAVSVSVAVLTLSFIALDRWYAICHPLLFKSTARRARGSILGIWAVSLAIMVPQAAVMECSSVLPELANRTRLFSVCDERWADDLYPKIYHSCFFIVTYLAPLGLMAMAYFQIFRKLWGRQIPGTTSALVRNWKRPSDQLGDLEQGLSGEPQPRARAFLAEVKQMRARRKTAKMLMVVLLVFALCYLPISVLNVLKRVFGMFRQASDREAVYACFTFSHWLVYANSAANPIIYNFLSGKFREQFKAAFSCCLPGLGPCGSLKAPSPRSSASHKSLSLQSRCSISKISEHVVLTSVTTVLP
Nature of the assay: Measurement of antagonism (PLAP assay), OX1. Type of assay: cell-based. More on the design: expressed in transfected cells; host or cells: HEK-293 cells, expression vector pBabeCLIH. How it is done:
as §1, §2, §3

For the next assay, the system named is mice (C57BL/6NCrlCrLj). Nature of the assay: Sleep experiment (EEG/EMG) in mice. Type of assay: in vivo. To be noted: for minimum effective dose (MED): oral, doses 0.3 to 100 mg/kg, accumulated sleep time within three hours after administration. How it is done:
As a method for measuring the influence of the present compound on sleep time, electroencephalogram (EEG) and electromyogram (EMG) measurements were carried out in mice (C57BL/6NCrlCrLj).
In order to measure brain waves and muscle signals, EEG and EMG electrode implantation was performed on individual mice, and the mice were then housed in a state in which they could freely move and habituate in individual recording cages for 1 week or longer. Thereafter, amplified EEG and EMG signals were digitally recorded.
Mice received either oral administration of vehicle or test compound in vehicle, after which sleep/wake behavior of mice was recorded for 3 hours.
For sleep analysis, automatic analysis software from Kissei Comtec Co., Ltd. was used to analyze EEG frequency and EMG activity signals in detail and to determine sleep and wake states. Thereafter, accumulated sleeping time over 3 hours was calculated.
The effect of the compound to increase sleep time was evaluated as the difference between sleeping time on the vehicle-administration day and the sleep time on the subsequent drug-administration day.
The minimum effective dose (MED; mg/kg) was obtained from accumulated sleep time of mice with three hours after the administration.

Assay [3] has as its target T1, OX2. Nature of the assay: Measurement of orexin receptor-binding ability ([125I]-OX-A, cell membranes, OX2). Also on record: expressed in transfected cells; host or cells: CHO cells (membrane preparation). To be noted: membranes of recombinant CHO cells expressing OX2, 0.2 nM [125I]-OX-A.
Assay [4] addresses T2, OX1. Nature of the assay: Measurement of orexin receptor-binding ability ([125I]-OX-A, cell membranes, OX1). Also on record: expressed in transfected cells; host or cells: CHO cells (membrane preparation).
Where [5] appears, read: HEK-293 cells expressing human OX1, 1 nM human OX-A, IC50 converted by Cheng-Prusoff equation, read-out: OX1 (Ki).
Setting [6] is: mice, oral administration, difference to vehicle day, 3 hours.
[7] abbreviates: membranes of recombinant CHO cells expressing OX1, 0.2 nM [125I]-OX-A, read-out: OX1 (IC50).
[8] abbreviates: HEK-293 cells expressing human OX2, 1 nM human OX-A, IC50 converted by Cheng-Prusoff equation, read-out: OX2 (Ki).

15 molecules from patent publication US8268848B2, “Cyclopropane compound” (Eisai R&D Management Co., Ltd., priority 2010, dated 2012) can be followed below.

Read-outs that look alike come from different tables or passages of the source.

Regarding `Cc1ncc(OC[C@@]2(c3ccccc3)C[C@H]2C(=O)Nc2ccc(F)cn2)c(C)n1` [Example 1, (1R,2S)-2-{[(2,4-dimethylpyrimidin-5-yl)oxy]methyl}-N-(5-fluoropyridin-2-yl)-2-phenylcyclopropanecarboxamide], the Ki at OX2 [1] was 10 nM; on OX1 [2] (setting [5]), 157 nM. Also, the “Sleep extended time 10 mg/kg (min/3 hrs)” value in the assay with mice (C57BL/6NCrlCrLj) (setting [6]) came out at 18.3 min/3 hrs. For the same molecule, the “minimum effective dose (MED)” value with mice (C57BL/6NCrlCrLj) (mice) was determined as 30 mg/kg. The IC50 is 6.8 nM at OX2 [3] (OX2 (IC50) nM) and 139 nM on OX1 [4] (setting [7]).
With `Cc1ncc(OC[C@@]2(c3ccccc3)C[C@H]2C(=O)Nc2ccc(Cl)cn2)c(C)n1` [Example 16, (1R,2S)-N-(5-chloropyridin-2-yl)-2-{[(2,4-dimethylpyrimidin-5-yl)oxy]methyl}-2-phenylcyclopropanecarboxamide], the figures for the Ki at OX2 [1] (setting [8]) and at OX1 [2] (setting [5]) were 5.4 nM and 80 nM, respectively. In addition, the “Sleep extended time 10 mg/kg (min/3 hrs)” value in the assay on mice (C57BL/6NCrlCrLj) (po, 3 h) turned out to be 19.0 min/3 hrs. Besides, the results for the IC50 at OX2 [3] (read-out: OX2 (IC50)) and on OX1 [4] (setting [7]) were 1.9 nM and 40 nM, respectively.
As for `Cc1ncc(OC[C@@]2(c3ccccc3)C[C@H]2C(=O)Nc2ccc(F)c(C#N)c2)c(C)n1` [Example 26, (1R,2S)-N-(3-cyano-4-fluorophenyl)-2-{[(2,4-dimethylpyrimidin-5-yl)oxy]methyl}-2-phenylcyclopropanecarboxamide], the Ki turned out to be 0.4 nM at OX2 [1] (setting [8]) and 27 nM at OX1 [2] (setting [5]). In addition, the results for the IC50 on OX2 [3] (read-out: OX2 (IC50)) and at OX1 [4] (setting [7]) were 3.7 nM and 20 nM, respectively.
In the case of `Cc1ncc(OC[C@@]2(c3ccccc3)C[C@H]2C(=O)Nc2cc(C)c(Cl)cn2)c(C)n1` [Example 45, (1R,2S)-N-(5-chloro-4-methylpyridin-2-yl)-2-{[(2,4-dimethylpyrimidin-5-yl)oxy]methyl}-2-phenylcyclopropanecarboxamide], the Ki at OX2 [1] (setting [8]) came to 0.45 nM; on OX1 [2] (setting [5]), 19 nM. The “Sleep extended time 10 mg/kg (min/3 hrs)” value in the assay on mice (C57BL/6NCrlCrLj) (po, 3 h) is listed as 15.2 min/3 hrs. Besides, the IC50 worked out at 6.2 nM at OX2 [3] (read-out: OX2 (IC50)) and 13.9 nM on OX1 [4] (setting [7]).
Turning to `COc1cncc(NC(=O)[C@@H]2C[C@@]2(COc2cnc(C)nc2C)c2ccccc2)c1` [Example 61], the Ki at OX2 [1] (setting [8]) is 26 nM; at OX1 [2] (setting [5]) it was more than 667 nM. The IC50 on OX2 [3] (read-out: OX2 (IC50)) was determined as 16 nM; on OX1 [4] (setting [7]), 874 nM.
For `Cc1ncc(OC[C@@]2(c3ccccc3)C[C@H]2C(=O)Nc2ccccc2)c(C)n1` [Example 64] the same measures were 6.3 nM, 133 nM, 15 nM and 74 nM.
In the case of `Cc1ncc(OC[C@@]2(c3ccccc3)C[C@H]2C(=O)Nc2ccccn2)c(C)n1` [Example 65], the Ki at OX2 [1] is 60 nM; on OX1 [2] (setting [5]) it was more than 667 nM. The IC50 stood at 81 nM at OX2 [3] (OX2 (IC50) nM) and 1030 nM on OX1 [4] (setting [7]).
In the case of `Cc1ncc(OC[C@@]2(c3ccccc3)C[C@H]2C(=O)Nc2cccnc2)c(C)n1` [Example 66], the Ki at OX2 [1] (setting [8]) was 34 nM; on OX1 [2] (setting [5]) it was more than 667 nM. For the same molecule, the IC50 worked out at 50 nM on OX2 [3] (read-out: OX2 (IC50)) and 398 nM on OX1 [4] (setting [7]).
Regarding `Cc1ncc(OC[C@@]2(c3ccccc3)C[C@H]2C(=O)Nc2ccncc2)c(C)n1` [Example 67], the results for the Ki on OX2 [1] and at OX1 [2] were 57 nM and more than 667 nM, respectively.
With `Cc1ncc(OC[C@@]2(c3cccc(F)c3)C[C@H]2C(=O)Nc2ccc(F)cn2)c(C)n1` [Example 95, (1R,2S)-2-{[(2,4-dimethylpyrimidin-5-yl)oxy]methyl}-2-(3-fluorophenyl)-N-(5-fluoropyridin-2-yl)cyclopropanecarboxamide], the affinity at OX1 [2], expressed as Ki, was 9.9 nM. Moreover, in the assay with mice (C57BL/6NCrlCrLj) (setting [6]), the “Sleep extended time 10 mg/kg (min/3 hrs)” value was 39.8 min/3 hrs. In addition, the “minimum effective dose (MED)” value in the assay with mice (C57BL/6NCrlCrLj) (mice) is reported as not above 1 mg/kg. This molecule registered an IC50 at OX1 [4] of 13.4 nM.
Regarding `Cc1ncc(OC[C@@]2(c3cc(F)cc(F)c3)C[C@H]2C(=O)Nc2ccc(F)cc2)c(C)n1` [Example 130, (1R,2S)-2-(3,5-difluorophenyl)-2-{[(2,4-dimethylpyrimidin-5-yl)oxy]methyl}-N-(4-fluorophenyl)cyclopropanecarboxamide], in the assay on mice (C57BL/6NCrlCrLj) (po, 3 h), the “Sleep extended time 10 mg/kg (min/3 hrs)” value was 24.2 min/3 hrs. In addition, the IC50 worked out at 4 nM on OX2 [3] (read-out: OX2 (IC50)) and 22 nM at OX1 [4] (setting [7]).
Regarding `COCc1nc(C)ncc1OC[C@@]1(c2ccccc2)C[C@H]1C(=O)Nc1ccc(Cl)cn1` [Example 139, (1R,2S)-N-(5-chloropyridin-2-yl)-2-{[(4-(methoxymethyl)-2-methylpyrimidin-5-yl)oxy]methyl}-2-phenylcyclopropanecarboxamide], the inhibition constant Ki on OX2 [1] (setting [8]) amounted to 1.7 nM; at OX1 [2] (setting [5]) it was 113 nM. The figures for the IC50 at OX2 [3] (read-out: OX2 (IC50)) and on OX1 [4] (setting [7]) were 3.3 nM and 22 nM, respectively.
For the molecule `COCc1nc(C)ncc1OC[C@@]1(c2ccccc2)C[C@H]1C(=O)Nc1ccc(F)cn1` [Example 141, (1R,2S)-N-(5-fluoropyridin-2-yl)-2-{[(4-(methoxymethyl)-2-methylpyrimidin-5-yl)oxy]methyl}-2-phenylcyclopropanecarboxamide], the “Sleep extended time 10 mg/kg (min/3 hrs)” value with mice (C57BL/6NCrlCrLj) (po, 3 h) stood at 28.7 min/3 hrs. Moreover, the IC50 on OX2 [3] (read-out: OX2 (IC50)) was determined as 1.3 nM; at OX1 [4] (setting [7]), 9 nM.
Consider `COCc1nc(C)ncc1OC[C@@]1(c2cccc(F)c2)C[C@H]1C(=O)Nc1ccc(F)cn1` [Example 191, (1R,2S)-2-(3-fluorophenyl)-N-(5-fluoropyridin-2-yl)-2-[(4-methoxymethyl-2-methylpyrimidin-5-yl)oxymethyl]cyclopropanecarboxamide], for which, in the assay with mice (C57BL/6NCrlCrLj) (setting [6]), the “Sleep extended time 10 mg/kg (min/3 hrs)” value was found to be 41.8 min/3 hrs. For the same molecule, the IC50 at OX2 [3] (OX2 (IC50) nM) and at OX1 [4] was 1 nM in each case.
On to `COCc1nc(C)ncc1OC[C@@]1(c2cccc(F)c2)C[C@H]1C(=O)Nc1cc(C)c(F)cn1` [Example 199, (1R,2S)-N-(5-fluoro-4-methylpyridin-2-yl)-2-(3-fluorophenyl)-2-{[(4-methoxymethyl-2-methylpyrimidin-5-yl)oxy]methyl}cyclopropanecarboxamide], for which, in the assay on mice (C57BL/6NCrlCrLj) (po, 3 h), the “Sleep extended time 10 mg/kg (min/3 hrs)” value is 36.2 min/3 hrs. Further, the IC50 on OX2 [3] (read-out: OX2 (IC50)) and on OX1 [4] (setting [7]) was 2 nM throughout.

The Ki is the equilibrium dissociation constant of an inhibitor or competing ligand from its target. Broadly, the IC50 is the concentration that inhibits the measured activity by half.
